# Measured values published in patent US20020037885A1, “Therapeutic compounds” (priority 1999, published 2002).
# How the values were obtained:
# [1] = test system: hyperpolarisation-activated inward cation current Ih in dorsal root ganglion (DRG) cells; experiment: Inhibition of hyperpolarisation-activated cation current (Ih), whole cell voltage clamp on cultured DRG cells; format: cell-based, rat; settings: at 1E-5 M
# [2] = test system: marble burying behaviour in mice; experiment: Mouse Marble Burying Assay (BUR); format: in vivo; settings: Mus musculus, sc; Table 3; read-out: BUR s.c. ED50
# Procedure: This assay was carried out essentially according to the procedure described by Treit et al. (1981) Pharmacol Biochem Behav; 15; 619-626.
# The results are presented as BUR ED50 (sc). This is the effective dose causing 50% inhibition of burying compared to control mice.
# Ih channel = settings: cited from earlier work
structure (smiles),measurement,setting,value
"C=CCC(N)c1ccccc1-c1noc2ncccc12.O=C(O)/C=C\C(=O)O (stereo not drawn) [16 (5), 2-(isoxazolo[5,4-b]pyridin-3-yl)-α-2-propenyl-benzenemethanamine (Z)-butenedioate]","Ih amplitude, inhibition",[1],90% inhibition at 1E-5
same,ED50,[2],1.7 mg/kg
same,melting point,,187 to 188 °C (dec.)
"CCN(c1ccccc1)c1cc(NC)[n+](C)c(C)n1 [ZD7288, 4-(N-ethyl-N-phenylamino)-1,2-dimethyl-6-(methyiamino)-pyrimidinium-chloride]",IC50,"Ih channel; Harris and Constanti 1995, read-out: IC50 for blocking Ih",2000 nM
[Ba] [barium],block of the Ih channel,Ih channel; 1 mM barium (Ba2+),not blocked
[Cs] [caesium],concentration blocking Ih,Ih channel; Pape 1996,1 to 5 mM
